Reference: US4315009A, “Antisecretory guanidine derivatives and pharmaceutical compositions containing them” (Imperial Chemical Industries Limited, priority 1978, dated 1982)

Experiment: overt toxicity in mice after intraperitoneal dosing
Format: in vivo
Settings: intraperitoneally, 50 mg./kg.

Q: With `C/N=C(\NC#N)Nc1cccc(-c2csc(N=C(N)N)n2)c1` [Example 2, 2-guanidino-4-[3-(2-cyano-3-methylguanidino)phenyl]thiazole] as the compound, how does the overt toxicity read?
A: Its overt toxicity is “no overt toxicity”.
